Patent US7094796B2, “Coupling product between tryptamine and an alpha-amino acid, process for its preparation as well as its application in the neurocosmetic field” (Exsymol S.A.M., priority 2002, dated 2006)

Experiments:
[1] = tested on: PC 12 cells; assay: Test 1: cytoprotecting effect on PC 12 cells submitted to a cytotoxic UV-B stress (LDH activity in culture medium); assay type: cell-based, murine; conditions: UV-B 285 nm, 500 mJ/cm^2, average of six measures
From the text: (§1) The cell model chosen by the applicant in all its in vitro experimentations was a pheochromocytomal cell line with murine origin, called “PC 12” and commonly accepted for neurobiological and neurochemical studies on nervous cells (Greene L. A. and al., Proc. Natl. Acad. Sci. USA (1976), vol.73, pp.2424–2428), in particular on peripheral neurones which innervate skin (Keilbaugh S. A., Biochem. Pharm. (1997), vol.53, pp.1485–1492).
(§2) The PC 12 line was used after differentiation according to a method described in the literature (Greene L. A. et al. in Culturing Nerve Cells (1991), MIT Press, Cambridge, Mass., pp.207–225).
Test 1: cytoprotecting effect of the alpha-L-glutamyltryptamine, L-methionyltryptamine and L-tryptophantryptamine on PC 12 cells submitted to a UV-B stress. Comparison with a reference antioxidant. A cytotoxic UV-B stress is applied on the nervous cell model (285 nm±5; 500 mJ/cm^2), in the absence then in the presence of active ingredient, successively the alpha-L-glutamyltryptamine (Glu-Tryp), L-methionyltryptamine (Met-Tryp) and L-tryptophantryptamine (Trp-Tryp).
The cell death is then evaluated by the measure of lactico-dehydrogenase activity (LDH) in the culture medium. This activity is proportional to the cell lysis which follows the cell death.
The results are expressed in % of protection and are given by the ratio of LDH activity according to the following equation: […]
The results are compared to the ones obtained with a reference antioxidant which is vitamin E (vit.E).
Validity of the test is checked by the measure of LDH activity in the culture medium of non stressed cells (negative check). Values listed in the tables hereafter are average values obtained from six measures.

[2] = tested on: PC 12 cells; assay: Test 2: slowdown of the neurodegeneration process of PC 12 submitted to a deprivation of serum (LDH release); assay type: cell-based, murine; conditions: serum deprivation of nine days, average of six measures
From the text: as §1, §2
Test 2: anti-aging effect of the alpha-L-glutamyltryptamine, L-methionyltryptamine and L-tryptophantryptamine with the slowdown of the neurodegeneration process of PC 12 submitted to a deprivation of serum.
A deprivation of serum is applied to PC 12 cells in order to imitate the aging effects. The neurodegeneration process is followed, in the absence then in the presence of active ingredient, successively the alpha-L-glutamyltryptamine (Glu-Tryp), L-methionyltryptamine (Met-Tryp) and L-tryptophantryptamine (Trp-Tryp), by a kinetic measure of the release in the culture medium of lactico-dehydrogenase enzyme (LDH).
The results are expressed in relative survival rate given by the LDH activity ratio according to the following equation: […]
The values listed in the tables hereafter are average values obtained from six measures after a serum deprivation of nine days.

[3] = tested on: PC 12 cells; assay: Test 3: anti-inflammatory effect on PC 12 cells submitted to a UV-B pro-inflammatory stress (IL-6 production); assay type: cell-based, murine; conditions: UV-B 285 nm, 150 mJ/cm^2, non treated irradiated control 400, non irradiated control 0
From the text: as §1, §2
Test 3: anti-inflammatory effect of the alpha-L-glutamyltryptamine, L-methionyltryptamine and L-tryptophantryptamine on PC 12 cells submitted to a pro-inflammatory stress. Comparison with two controls (PC 12): the first one is non stressed, the second one is stressed but non treated
A UV-B pro-inflammatory stress is applied on PC 12 cells (285 nm±5; 150 mJ/cm^2), in the absence then in the presence of active ingredient, successively the alpha-L-glutamyltryptamine (Glu-Tryp), L-methionyltryptamine (Met-Tryp) and L-tryptophantryptamine (Trp-Tryp).
The neurogenic inflammatory response is evaluated by the measure of the rate of pro-inflammatory interleukine-6 (IL-6) which are produced by the PC 12 cells.

[4] = tested on: immune monocyte cells, the THP-1 line; assay: Test 4: stimulation of the neuro immuno-cutaneous system (IL-1β produced by THP-1 monocytes given supernatants of treated PC 12 cells); assay type: cell-based; conditions: supernatant added to THP-1, non treated supernatant control 40
Method: Test 4: stimulation of the neuro immuno-cutaneous system with the alpha-L-glutamyltryptamine, L-methionyltryptamine or L-tryptophantryptamine.
PC 12 cells are differentiated according to a special protocol to avoid artefacts. After a brief deprivation of growth and differentiation factors, PC 12 are incubated in different concentrations of pseudodipeptides, successively the alpha-L-glutamyltryptamine (Glu-Tryp), L-methionyltryptamine (Met-Tryp) and L-tryptophantryptamine (Trp-Tryp).
After a five days-incubation, the cellular supernatants containing neuromediators and miscellaneous secretions are sampled then introduced in the culture of immune monocyte cells, the THP-1 line.
The effect on the neuro immuno-cutaneous system is observed by measuring the rate of IL-1β interleukines produced by the monocyte cells in response to the addition of supernatants coming from the culture of PC 12 cells.
The results are compared to two controls: the first one with immune cells without supernatant, the second one containing immune cells with supernatant but non treated.

[5] = 0.05 mM on PC 12, five days-incubation
[6] = 0.1 mM on PC 12, five days-incubation

Compound: vitamin E [Vit. E, reference compound]
- % of protection ([1]; 2 mM): 34%

Compound: N[C@@H](Cc1c[nH]c2ccccc12)C(=O)NCCc1c[nH]c2ccccc12 [Trp-Tryp, L-tryptophantryptamine]
- improvement of the survival time (%) ([2]; 0.1 mM): +17%
- improvement of the survival time (%) ([2]; 0.45 mM): +20%
- improvement of the survival time (%) ([2]; 0.85 mM): +30%
- produced IL-6 rate ([3]; 0.1 mM): 305 pg/mL
- produced IL-6 rate ([3]; 0.45 mM): 210 pg/mL
- produced IL-6 rate ([3]; 0.85 mM): 100 pg/mL
- produced IL-1β rate [4, 5]: 44 pg/mL
- produced IL-1β rate [4, 6]: 60 pg/mL
- produced IL-1β rate ([4]; 0.45 mM on PC 12, five days-incubation): 92 pg/mL
- % of protection ([1]; 0.05 mM): 22%
- % of protection ([1]; 0.1 mM): 35%
- % of protection ([1]; 0.45 mM): 45%
- % of protection ([1]; 0.85 mM): 58%
- % of protection ([1]; 1.80 mM): 66%

Compound: CSCC[C@H](N)C(=O)NCCc1c[nH]c2ccccc12 [Met-Tryp, L-methionyltryptamine]
- improvement of the survival time (%) ([2]; 0.1 mM): +12%
- improvement of the survival time (%) ([2]; 0.48 mM): +15%
- improvement of the survival time (%) ([2]; 0.85 mM): +28%
- produced IL-6 rate ([3]; 0.1 mM): 290 pg/mL
- produced IL-6 rate ([3]; 0.48 mM): 210 pg/mL
- produced IL-6 rate ([3]; 0.85 mM): 85 pg/mL
- produced IL-1β rate [4, 5]: 42 pg/mL
- produced IL-1β rate [4, 6]: 55 pg/mL
- produced IL-1β rate ([4]; 0.48 mM on PC 12, five days-incubation): 85 pg/mL
- % of protection ([1]; 0.05 mM): 20%
- % of protection ([1]; 0.1 mM): 32%
- % of protection ([1]; 0.48 mM): 42%
- % of protection ([1]; 0.85 mM): 53%
- % of protection ([1]; 1.91 mM): 65%
